Drawing on US8884023B2, “Pyrano [3,2-D][1,3]thiazole as glycosidase inhibitors” (priority 2011, dated 2014), this text covers EC50 and IC50 for 13 molecules.

One test has as its target T1, O-GlcNAcase (UniProt Q8VIJ5).
T1 sequence (Q8VIJ5 1-916): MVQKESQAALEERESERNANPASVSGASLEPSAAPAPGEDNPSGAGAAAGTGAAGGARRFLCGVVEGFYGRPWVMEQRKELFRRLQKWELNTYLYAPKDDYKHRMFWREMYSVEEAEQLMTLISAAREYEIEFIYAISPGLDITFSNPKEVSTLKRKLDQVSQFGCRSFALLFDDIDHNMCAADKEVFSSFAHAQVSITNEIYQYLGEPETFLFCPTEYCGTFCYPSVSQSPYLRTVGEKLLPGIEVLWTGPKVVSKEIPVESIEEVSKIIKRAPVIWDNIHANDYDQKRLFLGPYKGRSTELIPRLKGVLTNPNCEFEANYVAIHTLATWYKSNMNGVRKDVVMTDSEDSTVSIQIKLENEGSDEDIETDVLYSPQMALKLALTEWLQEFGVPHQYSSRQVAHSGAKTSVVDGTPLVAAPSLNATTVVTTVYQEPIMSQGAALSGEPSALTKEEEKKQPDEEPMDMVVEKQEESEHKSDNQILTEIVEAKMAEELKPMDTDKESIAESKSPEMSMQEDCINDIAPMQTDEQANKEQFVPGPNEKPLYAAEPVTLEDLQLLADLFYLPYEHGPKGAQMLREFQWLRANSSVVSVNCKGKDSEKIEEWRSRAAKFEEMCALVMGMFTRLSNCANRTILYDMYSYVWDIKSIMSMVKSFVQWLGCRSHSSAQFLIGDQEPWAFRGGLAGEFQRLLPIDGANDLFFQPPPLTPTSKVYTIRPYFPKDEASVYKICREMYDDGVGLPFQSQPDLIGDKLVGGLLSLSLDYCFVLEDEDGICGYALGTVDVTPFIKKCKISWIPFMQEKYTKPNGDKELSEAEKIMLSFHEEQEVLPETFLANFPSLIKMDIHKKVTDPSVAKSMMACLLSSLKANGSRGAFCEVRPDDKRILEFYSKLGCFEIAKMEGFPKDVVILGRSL
The format is cell-based. The conditions noted are these: cells expressing endogenous O-GlcNAcase (such as rat B35, rat PC-12, human SH-SY5Y), approximately 16 hours treatment; read-out: OGA cellular inhibition (EC50). From the text: Assay for the Determination of Cellular Activity for Compounds that Inhibit O-GlcNAcase Activity
Inhibition of O-GlcNAcase, which removes O-GlcNAc from cellular proteins, results in an increase in the level of O-GlcNAcylated proteins in cells. An increase in the O-GlcNAcylation of cellular proteins can be measured by an antibody, such as CTD110.6, that binds O-GlcNAcylated proteins. The amount of O-GlcNAcylated protein can be determined by the enzyme linked immunoabsorbant assay (ELISA) technique.
Cell lines, such as rat B35, rat PC-12 and human SH-SY5Y cells, expressing endogenous levels of O-GlcNAcase, could be utilized. Cells were plated in 96-well plates at a density of approximately 10,000 cells/well. Compounds to be tested were dissolved in DMSO as 10 mM stock solution, and then diluted first with DMSO and then culture media using the Bravo workstation. Cells were treated with diluted compounds for approximately 16 hours. […] To prepare a cell lysate, the media from compound treated cells were removed, and the cells were washed once with Dulbecco's phosphate buffered saline (DPBS) and then lysed for 30 minutes in 100 μl/well of ice cold RIPA buffer containing a protease inhibitor cocktail.
The ELISA portion of the assay was performed in EIA/RIA plates that were coated overnight at 4 C with 80 μl/well of cell lysate. The following day the wells were washed 6 times with 200 μl of wash buffer (0.05% Tween20 in DPBS). The wells were blocked with 200 μl blocking buffer (1% BSA, 0.05% Tween20 in DPBS) for 1 h at room temperature. Each well was then washed 6 times with 200 μl of wash buffer. The anti-O-GlcNAc antibody CTD110.6 (Covance, Princeton, N.J.) was added at 100 μl/well at a concentration of 10 μg/ml. The plates were incubated for 1 h at room temperature. The wells were then washed 6 times with 200 μl/well of wash buffer. To detect the amount of CTD110.6 bound to the cell lysate, alkaline phosphatase conjugated goat anti-mouse IgM (diluted 1:500 in blocking buffer) was added at 100 μl/well and incubated for 45 min at room temperature. Each well was then washed 6 times with 200 μl/well of wash buffer. PNPP tablets dissolved in diethanolamine substrate buffer and 100 μl/well were added as detection reagent.
The amount of O-GlcNAcylated protein, as detected by the ELISA assay, was plotted for each concentration of test compound using standard curve fitting algorithms for sigmoidal dose response curves. The values for a four parameter logistic curve fit of the data were determined, with the inflection point of the curve being the potency value for the test compound.

Test [1] addresses T2, His-Tagged hOGA (human O-GlcNAcase) (Homo sapiens, UniProt O60502).
T2 sequence (O60502 1-916): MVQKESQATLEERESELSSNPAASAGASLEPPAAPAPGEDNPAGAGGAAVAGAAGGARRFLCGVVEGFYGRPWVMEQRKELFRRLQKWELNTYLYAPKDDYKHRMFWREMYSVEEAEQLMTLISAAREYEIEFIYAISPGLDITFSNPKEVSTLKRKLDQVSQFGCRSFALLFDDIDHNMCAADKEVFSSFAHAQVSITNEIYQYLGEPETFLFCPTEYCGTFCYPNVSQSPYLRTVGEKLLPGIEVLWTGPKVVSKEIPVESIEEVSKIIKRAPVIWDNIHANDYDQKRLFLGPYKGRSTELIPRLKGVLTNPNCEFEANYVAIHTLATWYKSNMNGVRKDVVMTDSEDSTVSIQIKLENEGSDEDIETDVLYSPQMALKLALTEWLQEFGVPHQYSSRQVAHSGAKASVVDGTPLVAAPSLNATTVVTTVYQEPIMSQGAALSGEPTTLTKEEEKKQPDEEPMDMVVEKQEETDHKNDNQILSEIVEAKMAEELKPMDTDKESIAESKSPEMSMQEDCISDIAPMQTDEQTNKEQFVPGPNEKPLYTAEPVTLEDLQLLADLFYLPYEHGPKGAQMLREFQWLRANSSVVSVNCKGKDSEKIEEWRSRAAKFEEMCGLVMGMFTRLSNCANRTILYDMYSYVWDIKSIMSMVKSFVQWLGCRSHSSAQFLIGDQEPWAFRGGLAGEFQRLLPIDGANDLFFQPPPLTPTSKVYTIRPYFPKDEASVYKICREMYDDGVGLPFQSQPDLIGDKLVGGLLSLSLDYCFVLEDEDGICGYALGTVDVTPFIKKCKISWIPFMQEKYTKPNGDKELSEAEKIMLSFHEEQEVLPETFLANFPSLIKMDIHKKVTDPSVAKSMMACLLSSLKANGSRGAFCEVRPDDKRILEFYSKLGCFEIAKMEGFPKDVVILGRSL
The test is described as follows: biochemical.

Where [2] appears, read: read-out: OGA enzyme inhibition (IC50).

Broadly, the EC50 is the concentration at which the effect is half-maximal. Broadly, the IC50 is the midpoint of a concentration-inhibition curve.

Like-named read-outs stand apart in the source and are kept apart here.

In the case of `CCNC1=N[C@@H]2[C@@H](O)[C@H](O)[C@@H](Cn3cc(CCc4ccccc4)nn3)O[C@@H]2S1` [compound no. 6, (3aR,5R,6S,7R,7aR)-2-(ethylamino)-5-{[4-(2-phenylethyl)-1H-1,2,3-triazol-1-yl]methyl}-5,6,7,7a-tetrahydro-3aH-pyrano[3,2-d][1,3]thiazole-6,7-diol], the EC50 at O-GlcNAcase fell in the range of 500 to 1000 nM. Moreover, the IC50 in test [1] is under 100 nM.

Consider `CCNC1=N[C@@H]2[C@@H](O)[C@H](O)[C@@H](Cn3cc(-c4ccccn4)nn3)O[C@@H]2S1` [compound no. 7, (3aR,5R,6S,7R,7aR)-2-(ethylamino)-5-[(4-pyridin-2-yl-1H-1,2,3-triazol-1-yl)methyl]-5,6,7,7a-tetrahydro-3aH-pyrano[3,2-d][1,3]thiazole-6,7-diol], for which the EC50 at O-GlcNAcase is over 1000 nM. Further, the half-maximal inhibitory concentration (IC50) in test [1] (setting [2]) lay in the range of 100 to 500 nM.

On to `CCNC1=N[C@@H]2[C@@H](O)[C@H](O)[C@@H](Cn3cc(C(=O)OC)nn3)O[C@@H]2S1` [compound no. 10, Methyl 1-{[(3aR,5R,6S,7R,7aR)-2-(ethylamino)-6,7-dihydroxy-5,6,7,7a-tetrahydro-3aH-pyrano[3,2-d][1,3]thiazol-5-yl]methyl}-1H-1,2,3-triazole-4-carboxylate], for which, at O-GlcNAcase, the EC50 is 500 to 1000 nM. In addition, the IC50 in test [1] (setting [2]) fell in the range of 100 to 500 nM.

On to `CCN(C(=O)OC(C)(C)C)C1=N[C@@H]2[C@@H](O)[C@H](O)[C@@H](CO)O[C@@H]2S1` [compound no. 12, Tert-butyl [(3aR,5R,6S,7R,7aR)-6,7-dihydroxy-5-(hydroxymethyl)-5,6,7,7a-tetrahydro-3aH-pyrano[3,2-d][1,3]thiazol-2-yl]ethylcarbamate], for which, on O-GlcNAcase, the EC50 was under 100 nM. The IC50 in test [1] is under 100 nM.

On to `CCNC1=N[C@@H]2[C@@H](O)[C@H](O)[C@@H](Cn3cc(Cc4ccccc4)nn3)O[C@@H]2S1` [compound no. 14, (3aR,5R,6S,7R,7aR)-5-[(4-benzyl-1H-1,2,3-triazol-1-yl)methyl]-2-(ethylamino)-5,6,7,7a-tetrahydro-3aH-pyrano[3,2-d][1,3]thiazole-6,7-diol], for which the EC50 at O-GlcNAcase was in the range of 100 to 500 nM. In test [1], this molecule showed an IC50 of under 100 nM.

For `C/C=C/C(=O)NC1=N[C@@H]2[C@@H](O)[C@H](O)[C@@H](CO)O[C@@H]2S1` [compound no. 19, (2E)-N-[(3aR,5R,6S,7R,7aR)-6,7-dihydroxy-5-(hydroxymethyl)-5,6,7,7a-tetrahydro-3aH-pyrano[3,2-d][1,3]thiazol-2-yl]but-2-enamide], the EC50 on O-GlcNAcase is over 1000 nM. In test [1] (setting [2]), the IC50 fell in the range of 500 to 1000 nM.

Consider `CCNC1=N[C@@H]2[C@@H](O)[C@H](O)[C@@H](Cn3cc(CCCc4ccccc4)nn3)O[C@@H]2S1` [compound no. 30, (3aR,5R,6S,7R,7aR)-2-(ethylamino)-5-{[4-(3-phenylpropyl)-1H-1,2,3-triazol-1-yl]methyl}-5,6,7,7a-tetrahydro-3aH-pyrano[3,2-d][1,3]thiazole-6,7-diol], for which the EC50 at O-GlcNAcase is over 1000 nM. In test [1], this molecule gave an IC50 of 100 to 500 nM.

Regarding `CCNC1=N[C@@H]2[C@@H](O)[C@H](O)[C@@H](CCl)O[C@@H]2S1` [compound no. 32, (3aR,5S,6S,7R,7aR)-5-(chloromethyl)-2-(ethylamino)-5,6,7,7a-tetrahydro-3aH-pyrano[3,2-d][1,3]thiazole-6,7-diol], at O-GlcNAcase, the EC50 was under 100 nM. Besides, the IC50 in test [1] (setting [2]) is under 100 nM.

In the case of `CCNC1=N[C@@H]2[C@@H](OS(C)(=O)=O)[C@H](O)[C@@H](CO)O[C@@H]2S1` [compound no. 46, (3aR,5R,6R,7R,7aR)-2-(ethylamino)-6-hydroxy-5-(hydroxymethyl)-5,6,7,7a-tetrahydro-3aH-pyrano[3,2-d][1,3]thiazol-7-yl methanesulfonate], the EC50 at O-GlcNAcase is 100 to 500 nM. Moreover, in test [1] (setting [2]), the IC50 lay in the range of 100 to 500 nM.

For the molecule `CCNC1=N[C@@H]2[C@@H](O)[C@H](O)[C@@H](CN(C)C)O[C@@H]2S1` [compound no. 51, (3aR,5R,6S,7R,7aR)-5-[(dimethylamino)methyl]-2-(ethylamino)-5,6,7,7a-tetrahydro-3aH-pyrano[3,2-d][1,3]thiazole-6,7-diol], on O-GlcNAcase, the EC50 was 100 to 500 nM. The IC50 in test [1] (setting [2]) lay in the range of 100 to 500 nM.

`CCNC1=N[C@@H]2[C@@H](O)[C@H](O)[C@@H](Cn3cc(Cn4nnc5ccccc54)nn3)O[C@@H]2S1` [compound no. 57, (3aR,5R,6S,7R,7aR)-5-{[4-(1H-1,2,3-benzotriazol-1-ylmethyl)-1H-1,2,3-triazol-1-yl]methyl}-2-(ethylamino)-5,6,7,7a-tetrahydro-3aH-pyrano[3,2-d][1,3]thiazole-6,7-diol]: the EC50 on O-GlcNAcase is over 1000 nM. The molecule also registered an IC50 in test [1] of under 100 nM.

Consider `CCNC1=N[C@@H]2[C@@H](O)[C@H](O)[C@@H](Cn3cc(COc4ccccc4)nn3)O[C@@H]2S1` [compound no. 58, (3aR,5R,6S,7R,7aR)-2-(ethylamino)-5-{[4-(phenoxymethyl)-1H-1,2,3-triazol-1-yl]methyl}-5,6,7,7a-tetrahydro-3aH-pyrano[3,2-d][1,3]thiazole-6,7-diol], for which the EC50 on O-GlcNAcase lay in the range of 500 to 1000 nM. Further, the IC50 in test [1] (setting [2]) was under 100 nM.

`CCNC1=N[C@@H]2[C@@H](O)[C@H](O)[C@@H](Cn3cc(C(C)(O)c4ccccc4)nn3)O[C@@H]2S1` (some centres unmarked) [compound no. 67, 2-Ethylamino-5-[4-(1-hydroxy-1-phenyl-ethyl)-[1,2,3]triazol-1-ylmethyl]-5,6,7,7a-tetrahydro-3aH-pyrano[3,2-d]thiazole-6,7-diol]: on O-GlcNAcase, the EC50 was under 100 nM. For the same molecule, the IC50 in test [1] is under 100 nM.
